Experimental data taken from paper PMC10877568 (ACS Chemical Biology, 2024).

Assays:
Format in all cases: binding
[1] = target: T1, Siglec-9 V-set domain (Siglec-9d1) (Homo sapiens, UniProt Q9Y336, C36S); assay: Isothermal titration calorimetry
[2] = target: T1, Siglec-9 V-set domain (Siglec-9d1); assay: 1H-15N HSQC NMR titration
mVENUS = assay: STD-NMR control experiment with mVENUS

T1 sequence (Q9Y336 18-144 C36S): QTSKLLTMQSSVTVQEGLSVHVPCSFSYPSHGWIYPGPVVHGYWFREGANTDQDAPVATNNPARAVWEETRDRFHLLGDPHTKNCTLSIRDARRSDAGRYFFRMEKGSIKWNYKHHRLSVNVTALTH

Molecule | ΔH ([1]; ITC, Siglec-9d1) [kcal/mol] | fold higher affinity for Siglec-9 than the glycan with unsubstituted Neu5Ac ([1]; comparison with the unsubstituted glycan) [fold] | fold higher affinity toward Siglec-9 than BTCNeu5Ac ([1]; from ITC KD values) | Kd [2] [µM] | STD NMR signals on binding to mVENUS (mVENUS)
9N-[5-(2-methylthiazol-4-yl)thiophene sulfonamide]-Neu5Acα(2–6)Galβ(1–4)GlcNAc [^MTTSNeu5Ac] | -10.2 | > 20 | approximately 2 fold |  | 
CC(=O)N[C@H]1[C@H]([C@H](O)[C@H](O)CO)O[C@@](O[C@H]2[C@@H](O)[C@@H](CO)O[C@@H](O[C@@H]([C@H](O[C@@H]3O[C@@H](C)[C@@H](O)[C@@H](O)[C@@H]3O)[C@H](C=O)NC(C)=O)[C@H](O)CO)[C@@H]2O)(C(=O)O)C[C@@H]1O [sLeX, Neu5Ac(α2-3)Gal(β1-4)[Fuc(1-3)]GlcNAc] |  |  |  | 499 ± 74 | did not produce any STD NMR signals
